Source: patent US20100130408A1, “USE OF MODIFIED CYCLOSPORINS” (priority 2006, published 2010)

What was measured:
[1] = test system: HSCs; assay: BrdU incorporation (cell proliferation ELISA); assay type: cell-based, rat
Experimental: (§1) A. In vitro Cell culture: HSCs are isolated from the liver of male Wistar rats by sequential in situ perfusion with collagenase and digestion with pronase, followed by centrifugation in a double-layered (17%/11.5%) metrizamide solution (Sigma. Chemical, St. Louis, Mo.), as described in Kato, et al, J. Hepatol (1999) 31:91-99. HSCs are cultured in Dulbecco's modified Eagle's medium (DMEM) with 10% fetal calf serum (FCS). Experiments are performed on cells between the third and fourth serial passages. To measure […] matrix metalloproteinase (MMP-1) and tissue inhibitor of matrix metalloproteinase (TIMP-1), TWNT-4 cells which is a human cell line derived from HSCs as produced according to Shibata, et al, Cell Transplant (2003) 12:499-507 is used for evaluating the effects of Fasudil on MMP-1 and TIMP-1. TWNT-4 cells are cultured in DMEM with 10% FCS as reported previously (Id). NIM811 (Novartis Pharma AG, Basel, Switzerland) is dissolved in DMEM and added to cultures. […]
Analysis of BrdU incorporation: HSC incorporation of BrdU is measured using a cell proliferation ELISA (Roche Diagnostics GmbH, Mannheim, Germany) as described in Higashi, et al, J. Lab Clin Med (2005) 145(6):316-322. […] BrdU incorporation is estimated by measuring the […].

[2] = test system: TWNT-4 cells; assay: gene expression using real time RT-PCR; assay type: cell-based, human; details: 0.5 μM
Experimental: Analysis of gene expression using real time RT-PCR: Total RNA is prepared from TWNT-4 cells with Trizol reagent (Invitrogen, Carlsbad, Calif., USA), which are maintained in either the presence or absence of NIM811 in 10% FCS for 24 h. cDNA is synthesized from […] RNA with GeneAmp™ RNA PCR (Applied Biosystems, Branchburg, N.J., USA) using random hexamers. Real-time PCR is performed using LightCycler-FastStart DNA Master SYBR Green 1 (Roche, Tokyo, Japan) as described in Nakamuta, et al, Int J. Mol Med (2005) 16(4):631-635. A reaction mixture (20 μl) is used containing LightCycler-FastStart DNA Master SYBR Green 1, 4 mM MgCl2, 0.5 μM of the upstream and downstream PCR primers, and […] of the first strand cDNA as a template. To control for variations in the reactions, all PCRs are normalized against glyceraldehyde-3-phosphate dehydrogenase (GAPDH) expression. The primers which may be used are as follows: 5′-[…]-3′ (forward primer) (SEQ ID NO. 1) and 5′-[…]-3′ (reverse primer)(SEQ ID NO. 2) for human type I collagen a1 chain (GenBank™ accession number NM-000088) (21); 5′-[…]-3′ (forward primer)(SEQ ID NO. 3) and 5′-[…]-3′ (reverse primer) for human a-SMA (GenBank™ accession number […]); 5′-[…]-3′ (forward primer) and 5′-[…]-3′ (reverse primer) for MMP-1 (GenBank™ accession number NM002421); 5′-[…]-3′ (forward primer) and 5′-[…]-3′ (reverse primer)(SEQ ID NO. 4) for TIMP-1 (GenBank™ accession number NM003254); 5′-[…]-3′ (forward primer)(SEQ ID NO. 5) and 5′-[…]-3′ (reverse primer)(SEQ ID NO. 6) for Smad7 (Quan, et al, J Biol Chem (2005) 80:8079-8085); 5′-[…]-3′ (forward primer)(SEQ ID NO. 7) and 5′-[…]-3′ (reverse primer)(SEQ ID NO. 8) for transforming growth factor □ receptor I (TGFβRI) (Woszcyk et al, Med Sci Monit (2004) 10:C33-C37)).

[3] = test system: HSCs; assay: Analysis of apoptosis (TUNEL); assay type: cell-based, rat; details: 2 μM
Experimental: as §1
Analysis of Apoptosis: HSCs are maintained in either the presence or absence of NIM811 in serum-free conditions for 24 h. […] Cells are then stained with Hoechst 33342, and analyzed by the TUNEL method using an In Situ Cell Death Detection Kit (Roche) according to the manufacturer's instructions. […] At least 100 cells from three independent experiments and from three different cell preparations are counted for each condition.

[4] = test system: HSCs; assay: Type 1 collagen assay (ELISA of culture media); assay type: cell-based; details: rat HSCs
Experimental: (§2) A. In vitro Cell culture: HSCs are isolated from the liver of male Wistar rats by sequential in situ perfusion with collagenase and digestion with pronase, followed by centrifugation in a double-layered (17%/11.5%) metrizamide solution (Sigma. Chemical, St. Louis, Mo.), as described in Kato, et al, J. Hepatol (1999) 31:91-99. HSCs are cultured in Dulbecco's modified Eagle's medium (DMEM) with 10% fetal calf serum (FCS). Experiments are performed on cells between the third and fourth serial passages. To measure […] matrix metalloproteinase (MMP-1) and tissue inhibitor of matrix metalloproteinase (TIMP-1), TWNT-4 cells which is a human cell line derived from HSCs as produced according to Shibata, et al, Cell Transplant (2003) 12:499-507 is used for evaluating the effects of Fasudil on MMP-1 and TIMP-1. TWNT-4 cells are cultured in DMEM with 10% FCS as reported previously (Id). NIM811 (Novartis Pharma AG, Basel, Switzerland) is dissolved in DMEM and added to cultures. Cell viability of HSCs is more than 90% under serum-free conditions for 24 h in the presence of 2 μM NIM811.
Type 1 collagen assay: Cultured HSCs are incubated in serum-free medium in the presence or absence of NIM811 for 24 h. Type I collagen is determined in culture media by ELISA as described in Iwamoto, et al, J. Hepatol (2000) 32:762-770. […]

[5] = Cell viability of HSCs; assay type: cell-based; details: male, Wistar, rat, primary hepatic stellate cells (HSCs), 2 μM NIM811, serum-free conditions
Experimental: as §2

[6] = test system: TWNT-4 cells; assay: MMP-1, TIMP-1, and collagenase assay; assay type: cell-based, human
Experimental: as §2
MMP-1, TIMP-1, and collagenase assay: Cultured TWNT-4 cells are incubated in serum-free medium in the presence or absence of NIM811 for 24 h. MMP-1 and TIMP-1 production are determined in culture media by ELISA with a Biotrak ELISA system for human MMP-1 (Amersham Biosciences, Piscataway, N.J., USA) and an hTIMP-1 kit (Daiichi Fine Chemical Co. Ltd., Toyama, Japan), respectively following procedures described in Fukushima, et al, Liver Int (2005) 25:829-838. Active MMP-1 and pro-MMP-1 in culture media are determined with a MMP-1 Biotrak Activity Assay System (Amersham).

C/C=C/C[C@@H](C)[C@@H](O)[C@H]1C(=O)N[C@@H](CC)C(=O)N(C)CC(=O)N(C)[C@@H]([C@@H](C)CC)C(=O)N[C@@H](C(C)C)C(=O)N(C)[C@@H](CC(C)C)C(=O)N[C@@H](C)C(=O)N[C@H](C)C(=O)N(C)[C@@H](CC(C)C)C(=O)N(C)[C@@H](CC(C)C)C(=O)N(C)[C@@H](C(C)C)C(=O)N1C [NIM811]
cell growth of HSCs [1]: suppresses cell growth of HSCs in a concentration-dependent manner | decrease of new DNA synthesis (BrdU incorporation) ([1]; 2.0 μM): ~30% | enhancement of expression of Smad7 [2]: ~2 fold | expression of TIMP-1 (mRNA) [2]: did not change | increase of expression of MMP-1 (mRNA) [2]: ~2 fold | reduction of expression of type I collagen (mRNA) [2]: roughly 30% | suppression of TGFβRI expression [2]: ~50% | apoptosis [3]: no apoptosis is observed | reduction of collagen accumulation ([4]; 0.5 μM): approximately 50% | suppression of collagen accumulation ([4]; increasing concentrations, 24 h): concentration-dependent suppression of collagen accumulation | viability at 24 h, 2 µM [5]: > 90% | increase in collagenase activity (active MMP-1) ([6]; 0.5 μM): roughly 2 fold | TIMP-1 production ([6]; 2.0 μM): does not significantly reduce TIMP-1 production | collagenase activity (active MMP-1) and pro-MMP-1 levels ([6]; increasing concentrations): concentration-dependent increase
